Data published in patent publication US12441730B2, “PRMT5 inhibitors” (Merck Sharp & Dohme LLC, priority 2019, dated 2025).
Read-outs that look alike come from different tables or passages of the source.

How the values were obtained:
[1] = molecular target: T1, Full-length (FL)-PRMT5-MEP50 enzyme complex (Homo sapiens, UniProt O14744); test: PRMT5-MEP50 Enzyme Methylation Assay (Version A); assay type: biochemical
T1 construct: Full-length (FL)-PRMT5-MEP50 enzyme complex (recombinant proteins from baculovirus-transfected Sf21 cells: FL-PRMT5; MW=73837 kDa and FL-MEP50; MW=38614); made in house; host or cells: baculovirus-transfected Sf21 cells
T1 sequence (O14744 whole entry): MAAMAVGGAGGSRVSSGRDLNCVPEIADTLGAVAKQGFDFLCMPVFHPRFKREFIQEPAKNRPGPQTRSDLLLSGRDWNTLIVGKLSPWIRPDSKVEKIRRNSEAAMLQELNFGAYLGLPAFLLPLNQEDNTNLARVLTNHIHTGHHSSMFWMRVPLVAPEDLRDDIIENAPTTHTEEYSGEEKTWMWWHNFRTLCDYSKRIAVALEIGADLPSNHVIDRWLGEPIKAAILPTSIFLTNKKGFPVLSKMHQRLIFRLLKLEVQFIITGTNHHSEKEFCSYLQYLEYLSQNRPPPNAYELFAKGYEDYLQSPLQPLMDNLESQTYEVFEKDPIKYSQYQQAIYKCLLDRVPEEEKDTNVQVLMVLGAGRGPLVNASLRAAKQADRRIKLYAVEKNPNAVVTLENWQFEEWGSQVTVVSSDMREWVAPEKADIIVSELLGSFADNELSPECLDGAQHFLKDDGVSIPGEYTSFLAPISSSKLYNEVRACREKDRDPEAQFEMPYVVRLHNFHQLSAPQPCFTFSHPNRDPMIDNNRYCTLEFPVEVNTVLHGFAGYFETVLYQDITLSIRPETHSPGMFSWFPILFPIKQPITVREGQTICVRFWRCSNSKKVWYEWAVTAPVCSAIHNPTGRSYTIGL
T1 sequence (Q9BQA1 whole entry partner): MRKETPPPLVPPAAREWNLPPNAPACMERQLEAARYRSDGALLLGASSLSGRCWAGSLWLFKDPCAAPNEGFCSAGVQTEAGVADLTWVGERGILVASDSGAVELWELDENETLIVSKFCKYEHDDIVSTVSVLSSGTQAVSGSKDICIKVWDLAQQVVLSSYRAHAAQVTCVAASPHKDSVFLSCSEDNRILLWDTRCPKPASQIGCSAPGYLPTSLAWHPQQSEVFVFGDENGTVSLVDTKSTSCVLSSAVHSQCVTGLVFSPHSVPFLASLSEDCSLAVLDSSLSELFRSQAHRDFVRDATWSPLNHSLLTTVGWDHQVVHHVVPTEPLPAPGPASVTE
How it was run: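 Compound was pre-incubated with enzyme for 60 min, then reacted 150 min at 37° C. at final 1.0 nM PRMT5-MEP50, 15 μM SAM and 75 nM biotinylated H4R3(Me1) peptide, in 50 mM Bicine pH 8.0 with 1% DMSO. SAMDI mass-spectrometric readout of Me1→Me2 conversion. EC50 from 4- or 7-parameter regression.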

[2] = test system: symmetric dimethylation of arginine (SDMA) of PRMT5 substrates in MCF-7 cells; test: PRMT5 Cell Target Engagement (TE) Assay; assay type: cell-based; conditions: 3 days treatment, SDMA high content imaging
How it was run: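 MCF-7 cells treated 3 days at 37 °C with a ten-point 1:3 titration from 10000 nM. Fixed cells immunostained with anti-SDMA and Alexa488 secondary; nuclear fluorescence quantified by high-content imaging versus DMSO wells, with IC50 from a 4-parameter fit.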

[3] = second value of 7 parameter biphasic fit, read-out: Enzyme Methylation Assay Version A (EC50 2)
[4] = single EC50 = 4 parameter single site sigmoidal fit, EC50 1 = first value of 7 parameter biphasic fit, read-out: Enzyme Methylation Assay Version A (EC50 or EC50 1)

For `O=C(c1cn2c(n1)C(C1CCOC1)CC(C(F)(F)F)C2)N1CC[C@]2(Cc3ccccc3CN2)[C@H](O)C1` (single isomer, unassigned) [Example 160, ((3R,3′R)-3′-hydroxy-1,4-dihydro-2H-spiro[isoquinoline-3,4′-piperidin]-1′-yl)((6S,8S or 6R,8R)-8-((S or R)-tetrahydrofuran-3-yl)-6-(trifluoromethyl)-5,6,7,8-tetrahydroimidazo[1,2-a]pyridin-2-yl)methanone], the EC50 [1, 3] was 9480 nM, the EC50 [1, 4] was 9.52 nM and the EC50 [2] was 289 nM.
`Cc1cc(C(F)F)n2nc(C(=O)N3CC[C@]4(Cc5ccccc5CN4)[C@H](O)C3)nc2n1` [Example 179, (7-(difluoromethyl)-5-methyl-[1,2,4]triazolo[1,5-a]pyrimidin-2-yl)((3R,3′R)-3′-hydroxy-1,4-dihydro-2H-spiro[isoquinoline-3,4′-piperidin]-1′-yl)methanone] showed an EC50 [1, 3] of 69200 nM, an EC50 [1, 4] of 513 nM and an EC50 ([2]; Homo sapiens, MCF7, 72 h) of 8760 nM.
`CC1CC(C(F)(F)F)Cn2cc(C(=O)N3CC[C@]4(Cc5ccccc5CN4)[C@H](O)C3)nc21` (single isomer, unassigned) [Example 167, ((3R,3′R)-3′-hydroxy-1,4-dihydro-2H-spiro[isoquinoline-3,4′-piperidin]-1′-yl)((6R,8R or 6S,8S)-8-methyl-6-(trifluoromethyl)-5,6,7,8-tetrahydroimidazo[1,2-a]pyridin-2-yl)methanone] was tested, and the EC50 [1, 3] was 3630 nM, the EC50 [1, 4] was 9.55 nM and the EC50 [2] was 194 nM.
Work on `N#CCCc1cc(C(F)(F)F)cn2cc(C(=O)N3CC[C@]4(Cc5ccccc5CN4)[C@H](O)C3)nc12` [Example 34, 3-(2-((3R,3’R)-3′-hydroxy-1,4-dihydro-2H-spiro[isoquinoline-3,4′-piperidine]-1′-carbonyl)-6-(trifluoromethyl)imidazo[1,2-a]pyridin-8-yl)propanenitrile] yielded an EC50 [1, 3] of 229 nM, an EC50 [1, 4] of 0.909 nM and an EC50 ([2]; Homo sapiens, MCF7, 72 h) of 4 nM.
Work on `O=C(c1cn2cc(Br)cc(N3CCCC3=O)c2n1)N1CC[C@]2(Cc3ccccc3CN2)[C@H](O)C1` [Example 14, 1-(6-bromo-2-((3R3’R)-3′-hydroxy-1,4-dihydro-2H-spiro[isoquinoline-3,4′-piperidine]-1′-carbonyl)imidazo[1,2-a]pyridin-8-yl)pyrrolidin-2-one] yielded an EC50 [1, 3] of 57500 nM, an EC50 [1, 4] of 100 nM and an EC50 ([2]; Homo sapiens, MCF7, 72 h) of 547 nM.
`O=C(c1cn2cc(Br)nc(OC3CCOC3)c2n1)N1CC[C@]2(Cc3ccccc3CN2)[C@H](O)C1` (single isomer, unassigned) [Example 99, (6-bromo-8-(((S or R)(tetrahydrofuran-3-yl)oxy)imidazo[1,2-a]pyrazin-2-yl)((3R,3′R)-3′-hydroxy-1,4-dihydro-2H-spiro[isoquinoline-3,4′-piperidin]-1′-yl)methanone] gave an EC50 [1, 3] of 147 nM, an EC50 [1, 4] of 0.427 nM and an EC50 [2] of 7.8 nM.
Work on `O=C(c1cn2cc(Br)c(O)cc2n1)N1CC[C@]2(Cc3ccccc3CN2)[C@H](O)C1` [Example 130, (6-bromo-7-hydroxy imidazo[1,2-a]pyridin-2-yl)[(3R,3′R)-3′-hydroxy-1,4-dihydro-1′H,2H-spiro[isoquinoline-3,4′-piperidin]-1′-yl]methanone] yielded an EC50 [1, 3] of 19700 nM, an EC50 [1, 4] of 21.4 nM and an EC50 ([2]; Homo sapiens, MCF7, 72 h) of 9600 nM.
`CCOc1nc(C)ccc1C(=O)N1CC[C@]2(Cc3ccccc3CN2)[C@H](O)C1` [Example 200, (2-ethoxy-6-methyl-3-pyridinyl)[(3R,3′R)-3′-hydroxy-1,4-dihydro-1′H,2H-spiro[isoquinoline-3,4′-piperidin]-1′-yl]methanone] showed an EC50 [1, 3] of 3020 nM, an EC50 [1, 4] of 6.73 nM and an EC50 ([2]; Homo sapiens, MCF7, 72 h) of 214 nM.
In the case of `Cn1c(=O)c(Br)cn2cc(C(=O)N3CC[C@]4(Cc5ccccc5CN4)[C@H](O)C3)nc12` (single isomer, unassigned) [Example 249], the EC50 [1, 3] is reported as 8510 nM, the EC50 [1, 4] is reported as 20.8 nM and the EC50 ([2]; Homo sapiens, MCF7, 72 h) is reported as 311 nM.
Compound `CC1(C)CC1(C#N)c1cnc2nc(C(=O)N3CC[C@]4(Cc5ccccc5CN4)[C@H](O)C3)cn2c1` (single isomer, unassigned) [Example 147] has an EC50 [1, 4] of 0.409 nM and an EC50 [2] of 2.28 nM.
Compound `COC(C)c1cc(Br)c2nc(C(=O)N3CC[C@]4(Cc5ccccc5CN4)[C@H](O)C3)cn2c1` (single isomer, unassigned) [Example 60] has an EC50 [1, 3] of 271 nM, an EC50 [1, 4] of 0.456 nM and an EC50 [2] of 7.49 nM.
Work on `COCc1cc(Br)cn2cc(C(=O)N3CC[C@]4(Cc5ccccc5CN4)[C@H](O)C3)nc12` [Example 28, (6-bromo-8-(methoxymethyl)imidazo[1,2-a]pyridin-2-yl)((3R,3’R)-3′-hydroxy-1,4-dihydro-2H-spiro[isoquinoline-3,4′-piperidin]-1′-yl)methanone] yielded an EC50 [1, 4] of 0.816 nM and an EC50 ([2]; Homo sapiens, MCF7, 72 h) of 2.75 nM.
For `CC1CC1c1cnc2nc(C(=O)N3CC[C@]4(Cc5ccccc5CN4)[C@H](O)C3)cn2c1` (single isomer, unassigned) [Example 74], the EC50 [1, 4] was 13.9 nM and the EC50 [2] was 8.37 nM.
`O=C(c1ccnc2ncnn12)N1CC[C@]2(Cc3ccccc3CN2)[C@H](O)C1` [Example 189, [1,2,4]triazolo[1,5-a]pyrimidin-7-yl((3R,3′R)-3′-hydroxy-1,4-dihydro-2H-spiro[isoquinoline-3,4′-piperidin]-1′-yl)methanone] was tested, and the EC50 [1, 3] was 66100 nM, the EC50 [1, 4] was 30.2 nM and the EC50 ([2]; Homo sapiens, MCF7, 72 h) was 3500 nM.
Work on `O=C(c1cn2c(n1)C(C1CCOC1)CC(C(F)(F)F)C2)N1CC[C@]2(Cc3ccccc3CN2)[C@H](O)C1` (single isomer, unassigned) [Example 161, ((3R,3′R)-3′-hydroxy-1,4-dihydro-2H-spiro[isoquinoline-3,4′-piperidin]-1′-yl)((6S,8S or 6R,8R)-8-((S or R)-tetrahydrofuran-3-yl)-6-(trifluoromethyl)-5,6,7,8-tetrahydroimidazo[1,2-a]pyridin-2-yl)methanone] yielded an EC50 [1, 3] of 9120 nM, an EC50 [1, 4] of 5.9 nM and an EC50 [2] of 374 nM.
`CC(O)c1cc(Br)cn2cc(C(=O)N3CC[C@]4(Cc5ccccc5CN4)[C@H](O)C3)nc12` (single isomer, unassigned) [Example 32, (6-bromo-8-((R or S)-1-hydroxyethyl)imidazo[1,2-a]pyridin-2-yl)((3R,3’R)-3′-hydroxy-1,4-dihydro-2H-spiro[isoquinoline-3,4′-piperidin]-1′-yl)methanone] gave an EC50 [1, 3] of 282 nM, an EC50 [1, 4] of 0.844 nM and an EC50 ([2]; Homo sapiens, MCF7, 72 h) of 5.15 nM.
Compound `Cc1ccc2c(c1)CN[C@@]1(CCN(C(=O)c3cn4cc(C5CC5)cnc4n3)C[C@H]1O)C2` [Example 228] has an EC50 [1, 4] of 144 nM and an EC50 ([2]; Homo sapiens, MCF7, 72 h) of 254 nM.
For `O=C(c1ccc2c(c1)NCCN(CC(F)(F)F)C2=O)N1CC[C@]2(Cc3ccccc3CN2)[C@H](O)C1` [Example 170, 8-{[(3R,3′R)-3′-hydroxy-1,4-dihydro-1′H,2H-spiro[isoquinoline-3,4′-piperidin]-1′-yl]carbonyl}-4-(2,2,2-trifluoroethyl)-1,2,3,4-tetrahydro-5H-1,4-benzodiazepin-5-one], the EC50 [1, 3] was 1780 nM, the EC50 [1, 4] was 2.56 nM and the EC50 ([2]; Homo sapiens, MCF7, 72 h) was 19 nM.
Compound `Cc1cc(Br)c2nc(C(=O)N3CC[C@]4(Cc5ccccc5CN4)[C@H](O)C3)cn2c1` [Example 49, (8-bromo-6-methylimidazo[1,2-a]pyridin-2-yl)((3R,3’R)-3′-hydroxy-1,4-dihydro-2H-spiro[isoquinoline-3,4′-piperidin]-1′-yl)methanone] has an EC50 [1, 3] of 347 nM, an EC50 [1, 4] of 1.15 nM and an EC50 ([2]; Homo sapiens, MCF7, 72 h) of 3.88 nM.
`Cc1ccc2nc(C(=O)N3CC[C@]4(Cc5ccccc5CN4)[C@H](O)C3)cn2c1` [Example 40, ((3R,3’R)-3′-hydroxy-1,4-dihydro-2H-spiro[isoquinoline-3,4′-piperidin]-1′-yl)(6-methylimidazo[2,2-a]pyridin-2-yl)methanone] showed an EC50 [1, 3] of 468 nM, an EC50 [1, 4] of 0.814 nM and an EC50 ([2]; Homo sapiens, MCF7, 72 h) of 8.7 nM.
In the case of `Cc1ccnc2nc(C(=O)N3CC[C@]4(Cc5ccccc5CN4)[C@H](O)C3)cn12` [Example 124, [(3R,3′R)-3′-hydroxy-1,4-dihydro-1′H,2H-spiro[isoquinoline-3,4′-piperidin]-1′-yl](5-methylimidazo[1,2-a]pyrimidin-2-yl)methanone], the EC50 [1, 3] is reported as 2420 nM, the EC50 [1, 4] is reported as 8.49 nM and the EC50 ([2]; Homo sapiens, MCF7, 72 h) is reported as 3320 nM.
For `CNc1nc(C)ccc1C(=O)N1CC[C@]2(Cc3ccccc3CN2)[C@H](O)C1` [Example 198, [(3R,3′R)-3′-hydroxy-1,4-dihydro-1′H,2H-spiro[isoquinoline-3,4′-piperidin]-1′-yl][6-methyl-2-(methylamino)-3-pyridinyl]methanone], the EC50 [1, 3] was 16000 nM, the EC50 [1, 4] was 19.3 nM and the EC50 ([2]; Homo sapiens, MCF7, 72 h) was 1070 nM.
With `CC(C)(O)COc1nc(Br)cn2cc(C(=O)N3CC[C@]4(Cc5ccccc5CN4)[C@H](O)C3)nc12` [Example 20, (6-bromo-8-(2-hydroxy-2-methylpropoxy)imidazo[1,2-a]pyrazin-2-yl)((3R,3’R)-3′-hydroxy-1,4-dihydro-2H-spiro[isoquinoline-3,4′-piperidin]-1′-yl)methanone] the EC50 [1, 3] was 151 nM, the EC50 [1, 4] was 0.438 nM and the EC50 ([2]; Homo sapiens, MCF7, 72 h) was 16.5 nM.
Compound `O=C(c1ccc2nccn2n1)N1CC[C@]2(Cc3ccccc3CN2)[C@H](O)C1` [Example 188, ((3R,3′R)-3′-hydroxy-1,4-dihydro-2H-spiro[isoquinoline-3,4′-piperidin]-1′-yl)(imidazo[1,2-b]pyridazin-6-yl)methanone] has an EC50 [1, 3] of 74100 nM, an EC50 [1, 4] of 144 nM and an EC50 ([2]; Homo sapiens, MCF7, 72 h) of 3320 nM.
